Among the data in patent US10188634B2, “3-(3H-imidazo[4,5-C]pyridin-2-yl)-1 H-pyrazolo[4,3-B]pyridines and therapeutic uses thereof” (Samumed, LLC, priority 2015, dated 2019) are inhibition and EC50 values, retold here.

Holding throughout (format): cell-based
The subject of one assay is SW480 colon cancer cells. Description: Cell viability assay (CellTiter-Blue) in SW480 colon cancer cells. To be noted: Homo sapiens, 96 h; for inhibition at 10 µM: four days, CellTiter-Blue, read-out: percent inhibition at 10 μM (given for EC50 of >10 μM); for EC50: four days incubation, CellTiter-Blue cell viability. The method, boiled down:
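Four-day exposure of SW480 cells (~2×10^3/well) to compound from 10 μM down to 0.004 μM in 1:3 steps, in duplicate. Resorufin fluorescence from CellTiter-Blue after ~3 h served as the viability read-out. EC50 values came from nonlinear curve fits, with % inhibition at 10 μM given where EC50 >10 μM.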
In general terms: The colour change of resazurin is a common sign of viable cells or microbes.

The next assay has as its system IL-6 in THP-1 cells. Description: Inhibition of IL-6 in LPS-stimulated THP-1 human monocyte cells (HTRF). The following applies: IL-6 HTRF; for EC50: 500 ng/mL LPS, 22 hours; for inhibition at 10 µM: LPS, read-out: percent inhibition in brackets (given for EC50 >10 μM). The method, boiled down:
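IL-6 was quantified by HTRF ratio after LPS (500 ng/mL, 22 h) stimulation of THP-1 monocytes pretreated 2 h with compound, 10-point 1:3 dilutions from 10 μM, 0.1% DMSO. Cells were held in 1% FBS for 24 h beforehand. Values normalised to DMSO; four-parameter EC50, or % inhibition at 10 μM above that.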
A general note: Time-resolved FRET reads energy transfer from a long-lived donor to a nearby acceptor.

Assay [1] relates to Wnt activity (Sp5-Luc reporter, human Sp5 promoter with eight TCF/LEF binding sites) in SW480 colon carcinoma cells. Nature of the assay: Screening assay for Wnt activity: Sp5-Luc reporter gene assay in SW480 cells. To be noted: for inhibition at 10 µM: read-out: percent inhibition at 10 μM (given for EC50 of >10 μM); for EC50: 10-point dose-response starting from 10 μM, overnight incubation. The method, boiled down:
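Luminescence (BrightGlo) read after overnight 37 °C exposure of Sp5-Luc SW480 reporter cells, 4,000/well in 1% FBS, to compound dosed 1:3 over 10 points from 10 μM with 0.1% DMSO. Values normalized to DMSO-only cells, fitted with variable-slope four-parameter model; where EC50 exceeds 10 μM, % inhibition at 10 μM reported.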
On the technique in general: A reporter such as luciferase makes a cellular process visible.

Turning to `CN1CCN(c2cncc3[nH]c(-c4n[nH]c5ccc(-c6cncc(NC(=O)C7CCCC7)c6)nc45)nc23)CC1` [Compound 246, N-(5-(3-(7-(4-Methylpiperazin-1-yl)-3H-imidazo[4,5-c]pyridin-2-yl)-1H-pyrazolo[4,3-b]pyridin-5-yl)pyridin-3-yl)cyclopentanecarboxamide], the inhibition – broadly, how much of the control response was suppressed – at 10 µM in the assay on SW480 colon cancer cells was found to be 1%; in the assay on IL-6 in THP-1 cells, 0%; in assay [1], 3.9%. Besides, the EC50 (in the assay with SW480 colon cancer cells; in the assay with IL-6 in THP-1 cells; in assay [1]) was above 10 µM in each case.
For the molecule `CN1CCN(c2cncc3[nH]c(-c4n[nH]c5ccc(-c6cncnc6)nc45)nc23)CC1` [Compound 251, 3-(7-(4-Methylpiperazin-1-yl)-3H-imidazo[4,5-c]pyridin-2-yl)-5-(pyrimidin-5-yl)-1H-pyrazolo[4,3-b]pyridine], the inhibition at 10 µM in the assay with SW480 colon cancer cells was 0%; with IL-6 in THP-1 cells, 31.8%; in assay [1], 14.4%. Further, the EC50 (in the assay with SW480 colon cancer cells; with IL-6 in THP-1 cells; in assay [1]) was above 10 µM each time.
As for `O=C(Nc1cncc(-c2ccc3[nH]nc(-c4nc5c(-c6ccsc6)cncc5[nH]4)c3n2)c1)c1ccccc1` [Compound 263, N-(5-(3-(7-(Thiophen-3-yl)-3H-imidazo[4,5-c]pyridin-2-yl)-1H-pyrazolo[4,3-b]pyridin-5-yl)pyridin-3-yl)benzamide], the inhibition at 10 µM with SW480 colon cancer cells is 0.3%; in the assay with IL-6 in THP-1 cells, 36.3%; in assay [1] it was 7.6%. Also, the EC50 (with SW480 colon cancer cells; with IL-6 in THP-1 cells; in assay [1]) was above 10 µM throughout.
`CCNCc1cncc(-c2ccc3[nH]nc(-c4nc5c(-c6ccoc6)cncc5[nH]4)c3n2)c1` [Compound 286, N-((5-(3-(7-(Furan-3-yl)-3H-imidazo[4,5-c]pyridin-2-yl)-1H-pyrazolo[4,3-b]pyridin-5-yl)pyridin-3-yl)methyl)ethanamine]: the values for the EC50 (in the assay with SW480 colon cancer cells; in the assay with IL-6 in THP-1 cells; in assay [1]) were 2.13 µM, above 10 µM and above 10 µM, respectively. Moreover, the inhibition at 10 µM with IL-6 in THP-1 cells worked out at 14.5%; in assay [1], 37.4%.
As for `CCCCC(=O)Nc1cncc(-c2ccc3[nH]nc(-c4nc5c(-c6ccoc6)cncc5[nH]4)c3n2)c1` [Compound 299, N-(5-(3-(7-(Furan-3-yl)-3H-imidazo[4,5-c]pyridin-2-yl)-1H-pyrazolo[4,3-b]pyridin-5-yl)pyridin-3-yl)pentanamide], the inhibition at 10 µM with SW480 colon cancer cells was determined as 6.7%; in the assay on IL-6 in THP-1 cells it was 48.6%; in assay [1], 14.7%. Moreover, the EC50 (with SW480 colon cancer cells; with IL-6 in THP-1 cells; in assay [1]) was above 10 µM each time.
`CCC(=O)Nc1cncc(-c2ccc3[nH]nc(-c4nc5c(-c6cccs6)cncc5[nH]4)c3n2)c1` [Compound 309, N-(5-(3-(7-(Thiophen-2-yl)-3H-imidazo[4,5-c]pyridin-2-yl)-1H-pyrazolo[4,3-b]pyridin-5-yl)pyridin-3-yl)propionamide]: the inhibition at 10 µM worked out at 0% with SW480 colon cancer cells, 31.2% in the assay on IL-6 in THP-1 cells and 2.4% in assay [1]. The half-maximal effective concentration (EC50) (in the assay on SW480 colon cancer cells; in the assay on IL-6 in THP-1 cells; in assay [1]) was above 10 µM throughout.
As to `CN(C)Cc1cncc(-c2ccc3[nH]nc(-c4nc5c(-c6cccs6)cncc5[nH]4)c3n2)c1` [Compound 321, N,N-dimethyl-1-(5-(3-(7-(thiophen-2-yl)-3H-imidazo[4,5-c]pyridin-2-yl)-1H-pyrazolo[4,3-b]pyridin-5-yl)pyridin-3-yl)methanamine], the values for the EC50 (in the assay with SW480 colon cancer cells; with IL-6 in THP-1 cells; in assay [1]) were 4.74 µM, above 10 µM and above 10 µM, respectively. In addition, the inhibition at 10 µM turned out to be 22.2% in the assay with IL-6 in THP-1 cells and 19.2% in assay [1].
Turning to `c1csc(-c2cncc3[nH]c(-c4n[nH]c5ccc(-c6ccncc6)nc45)nc23)c1` [Compound 326, 5-(Pyridin-4-yl)-3-(7-(thiophen-2-yl)-3H-imidazo[4,5-c]pyridin-2-yl)-1H-pyrazolo[4,3-b]pyridine], the inhibition at 10 µM with SW480 colon cancer cells was 0%; in the assay with IL-6 in THP-1 cells, 22.3%; in assay [1], 12.7%. The EC50 (in the assay on SW480 colon cancer cells; in the assay with IL-6 in THP-1 cells; in assay [1]) was above 10 µM throughout.
For the molecule `O=C(Nc1cncc(-c2ccc3[nH]nc(-c4nc5c(-c6cccs6)cncc5[nH]4)c3n2)c1)C1CC1` [Compound 328, N-(5-(3-(7-(Thiophen-2-yl)-3H-imidazo[4,5-c]pyridin-2-yl)-1H-pyrazolo[4,3-b]pyridin-5-yl)pyridin-3-yl)cyclopropanecarboxamide], the inhibition at 10 µM in the assay on SW480 colon cancer cells stood at 10%; in the assay on IL-6 in THP-1 cells, 40.6%; in assay [1], 3.7%. The concentration for a half-maximal effect (EC50) (in the assay with SW480 colon cancer cells; with IL-6 in THP-1 cells; in assay [1]) was above 10 µM throughout.
`Cc1ccc(-c2cncc3[nH]c(-c4n[nH]c5ccc(-c6cncc(NC(=O)C(C)C)c6)nc45)nc23)s1` [Compound 373, N-(5-(3-(7-(5-Methylthiophen-2-yl)-3H-imidazo[4,5-c]pyridin-2-yl)-1H-pyrazolo[4,3-b]pyridin-5-yl)pyridin-3-yl)isobutyramide]: the values for the inhibition at 10 µM (in the assay on SW480 colon cancer cells; in the assay on IL-6 in THP-1 cells; in assay [1]) were 2.6%, 41.3% and 16.1%, respectively. Besides, the EC50 (in the assay on SW480 colon cancer cells; in the assay with IL-6 in THP-1 cells; in assay [1]) was above 10 µM throughout.
For `Cc1ccc(-c2cncc3[nH]c(-c4n[nH]c5ccc(-c6cncc(NC(=O)C7CCCC7)c6)nc45)nc23)s1` [Compound 386, N-(5-(3-(7-(5-Methylthiophen-2-yl)-3H-imidazo[4,5-c]pyridin-2-yl)-1H-pyrazolo[4,3-b]pyridin-5-yl)pyridin-3-yl)cyclopentanecarboxamide], the inhibition at 10 µM in the assay on SW480 colon cancer cells was 0.9%; in assay [1], 8.7%. The half-maximal effective concentration (EC50) (in general, the concentration needed to bring the measured effect to its halfway point) in the assay on SW480 colon cancer cells was above 10 µM; in the assay on IL-6 in THP-1 cells it was 0.351 µM; in assay [1], above 10 µM.
Regarding `CCNCc1cncc(-c2ccc3[nH]nc(-c4nc5c(-c6cc(F)cc(NCCN(C)C)c6)cncc5[nH]4)c3n2)c1` [Compound 426, N^1-(3-(2-(5-(5-((Ethylamino)methyl)pyridin-3-yl)-1H-pyrazolo[4,3-b]pyridin-3-yl)-3H-imidazo[4,5-c]pyridin-7-yl)-5-fluorophenyl)-N^2,N^2-dimethylethane-1,2-diamine], the inhibition at 10 µM with SW480 colon cancer cells was 4.4%; in assay [1], 8.8%. Moreover, the EC50 in the assay with SW480 colon cancer cells was above 10 µM; in the assay with IL-6 in THP-1 cells it was 8.05 µM; in assay [1], above 10 µM.
On to `CCCCC(=O)Nc1cncc(-c2ccc3[nH]nc(-c4nc5c(-c6cc(F)cc(NCCN(C)C)c6)cncc5[nH]4)c3n2)c1` [Compound 439, N-(5-(3-(7-(3-((2-(Dimethylamino)ethyl)amino)-5-fluorophenyl)-3H-imidazo[4,5-c]pyridin-2-yl)-1H-pyrazolo[4,3-b]pyridin-5-yl)pyridin-3-yl)pentanamide], for which the inhibition at 10 µM with SW480 colon cancer cells was found to be 1.3%; with IL-6 in THP-1 cells, 31.5%; in assay [1], 3.1%. Besides, the EC50 (in the assay on SW480 colon cancer cells; with IL-6 in THP-1 cells; in assay [1]) was above 10 µM throughout.
With `CS(=O)(=O)NCc1cc(F)cc(-c2cncc3[nH]c(-c4n[nH]c5ccc(-c6cncc(NC(=O)c7ccccc7)c6)nc45)nc23)c1` [Compound 459, N-(5-(3-(7-(3-Fluoro-5-(methylsulfonamidomethyl)phenyl)-3H-imidazo[4,5-c]pyridin-2-yl)-1H-pyrazolo[4,3-b]pyridin-5-yl)pyridin-3-yl)benzamide], the inhibition at 10 µM with SW480 colon cancer cells was determined as 1.8%; in the assay with IL-6 in THP-1 cells, 0%; in assay [1] it was 9.6%. Further, the EC50 (with SW480 colon cancer cells; in the assay on IL-6 in THP-1 cells; in assay [1]) was above 10 µM in each case.
As to `CCCC(=O)Nc1cncc(-c2ccc3[nH]nc(-c4nc5c(-c6cc(F)cc(CNS(C)(=O)=O)c6)cncc5[nH]4)c3n2)c1` [Compound 465, N-(5-(3-(7-(3-Fluoro-5-(methylsulfonamidomethyl)phenyl)-3H-imidazo[4,5-c]pyridin-2-yl)-1H-pyrazolo[4,3-b]pyridin-5-yl)pyridin-3-yl)butyramide], the results for the inhibition at 10 µM (in the assay on SW480 colon cancer cells; with IL-6 in THP-1 cells; in assay [1]) were 1.8%, 28.6% and 28%, respectively. Also, the EC50 (with SW480 colon cancer cells; in the assay with IL-6 in THP-1 cells; in assay [1]) was above 10 µM each time.
Regarding `CS(=O)(=O)NCc1cc(F)cc(-c2cncc3[nH]c(-c4n[nH]c5ccc(-c6cncc(CNCc7ccccc7)c6)nc45)nc23)c1` [Compound 472, N-(3-(2-(5-(5-((Benzylamino)methyl)pyridin-3-yl)-1H-pyrazolo[4,3-b]pyridin-3-yl)-3H-imidazo[4,5-c]pyridin-7-yl)-5-fluorobenzyl)methanesulfonamide], the inhibition at 10 µM in the assay with SW480 colon cancer cells worked out at 0%; with IL-6 in THP-1 cells, 39.3%; in assay [1] it was 20.1%. For the same molecule, the EC50 (in the assay with SW480 colon cancer cells; with IL-6 in THP-1 cells; in assay [1]) was above 10 µM throughout.
